# Test results: ChEMBL document CHEMBL1777803, “Synthesis and SAR study of tricyclic sulfones as γ-secretase inhibitors: C-6 and C-8 positions” (Bioorg Med Chem Lett, 2011)
# Test: nhibition of gamma secretase-mediated Abeta40 production by cell based assay
# Settings: not given
row,Compound,IC50 [nM]
1,O=S(=O)(N[C@@H]1CC[C@@]2(S(=O)(=O)c3ccc(Cl)cc3)c3c(F)ccc(F)c3OC[C@@]2(O)C1)C(F)(F)F,11
2,O=S(=O)(N[C@@H]1CC[C@@]2(S(=O)(=O)c3ccc(Cl)cc3)c3c(F)ccc(F)c3OC[C@@]2(O)C1)C1CC1,3
3,O=S(=O)(N[C@@H]1CC[C@@]2(S(=O)(=O)c3ccc(C(F)(F)F)cc3)c3c(F)ccc(F)c3OC[C@@]2(O)C1)C(F)(F)F,80

# Test: nhibition of gamma secretase-mediated Abeta42 production by cell based assay
# Settings: not given
row,Compound,IC50 [nM]
1,O=S(=O)(N[C@@H]1CC[C@@]2(S(=O)(=O)c3ccc(Cl)cc3)c3c(F)ccc(F)c3OC[C@@]2(O)C1)C(F)(F)F,33
2,O=S(=O)(N[C@@H]1CC[C@@]2(S(=O)(=O)c3ccc(Cl)cc3)c3c(F)ccc(F)c3OC[C@@]2(O)C1)C1CC1,9
3,O=S(=O)(N[C@@H]1CC[C@@]2(S(=O)(=O)c3ccc(C(F)(F)F)cc3)c3c(F)ccc(F)c3OC[C@@]2(O)C1)C(F)(F)F,51

# Test: Inhibition of gamma secretase-mediated Abeta40 production
# Settings: not given
row,Compound,IC50 [nM]
1,O=S(=O)(N[C@@H]1CC[C@@]2(S(=O)(=O)c3ccc(Cl)cc3)c3c(F)ccc(F)c3OC[C@H]2C1)C(F)(F)F,27
2,O=S(=O)(NCCO[C@]12CCCC[C@@]1(S(=O)(=O)c1ccc(Cl)cc1)c1c(F)ccc(F)c1OC2)C(F)(F)F,295
3,CCSCCO[C@]12CCCC[C@@]1(S(=O)(=O)c1ccc(Cl)cc1)c1c(F)ccc(F)c1OC2,170
4,CCS(=O)(=O)CCO[C@]12CCCC[C@@]1(S(=O)(=O)c1ccc(Cl)cc1)c1c(F)ccc(F)c1OC2,15
5,CC(C)SCCO[C@]12CCCC[C@@]1(S(=O)(=O)c1ccc(Cl)cc1)c1c(F)ccc(F)c1OC2,180
6,CC(C)S(=O)(=O)CCO[C@]12CCCC[C@@]1(S(=O)(=O)c1ccc(Cl)cc1)c1c(F)ccc(F)c1OC2,8
7,CS(=O)(=O)CCO[C@]12CCCC[C@@]1(S(=O)(=O)c1ccc(Cl)cc1)c1c(F)ccc(F)c1OC2,9
8,CNS(=O)(=O)CCO[C@]12CCCC[C@@]1(S(=O)(=O)c1ccc(Cl)cc1)c1c(F)ccc(F)c1OC2,37
9,CN(C)S(=O)(=O)CCO[C@]12CCCC[C@@]1(S(=O)(=O)c1ccc(Cl)cc1)c1c(F)ccc(F)c1OC2,50
10,NCCO[C@]12CCCC[C@@]1(S(=O)(=O)c1ccc(Cl)cc1)c1c(F)ccc(F)c1OC2,12
11,CNCCO[C@]12CCCC[C@@]1(S(=O)(=O)c1ccc(Cl)cc1)c1c(F)ccc(F)c1OC2,40
12,CN(C)CCO[C@]12CCCC[C@@]1(S(=O)(=O)c1ccc(Cl)cc1)c1c(F)ccc(F)c1OC2,31
13,CS(=O)(=O)NCCO[C@]12CCCC[C@@]1(S(=O)(=O)c1ccc(Cl)cc1)c1c(F)ccc(F)c1OC2,26
14,O=C1CC[C@@]2(S(=O)(=O)c3ccc(C(F)(F)F)cc3)c3c(F)ccc(F)c3OC[C@@]2(O)C1,53
15,O=S(=O)(c1ccc(C(F)(F)F)cc1)[C@@]12CC[C@@H](O)C[C@]1(O)COc1c(F)ccc(F)c12,136
16,O=C1CC[C@@]2(S(=O)(=O)c3ccc(Cl)cc3)c3c(F)ccc(F)c3OC[C@H]2C1,13
17,O=S(=O)(c1ccc(Cl)cc1)[C@@]12CCCC[C@@H]1COc1c(F)ccc(F)c12,22
18,CCS(=O)(=O)CCO[C@@]12COc3c(F)ccc(F)c3[C@]1(S(=O)(=O)c1ccc(Cl)cc1)CCC1(C2)OCCO1,1300
19,CCS(=O)(=O)CCO[C@@]12COc3c(F)ccc(F)c3[C@]1(S(=O)(=O)c1ccc(Cl)cc1)CCC(=O)C2,160
20,CC(C)S(=O)(=O)CCO[C@@]12COc3c(F)ccc(F)c3[C@]1(S(=O)(=O)c1ccc(Cl)cc1)CCC1(C2)OCCO1,940
21,CC(C)S(=O)(=O)CCO[C@@]12COc3c(F)ccc(F)c3[C@]1(S(=O)(=O)c1ccc(Cl)cc1)CCC(=O)C2,130
22,O=S(=O)(NCCO[C@@]12COc3c(F)ccc(F)c3[C@]1(S(=O)(=O)c1ccc(Cl)cc1)CC[C@@H](O)C2)C(F)(F)F,4100

# Results, then the compound that gave them:
row,IC50 [nM],Compound
1,2900,O=S(=O)(c1ccc(Cl)cc1)[C@@]12CCC3(C[C@]1(O)COc1c(F)ccc(F)c12)OCCO3
2,21,O=C1CC[C@@]2(S(=O)(=O)c3ccc(Cl)cc3)c3c(F)ccc(F)c3OC[C@@]2(O)C1
3,21,O=S(=O)(N[C@@H]1CC[C@@]2(S(=O)(=O)c3ccc(Cl)cc3)c3c(F)ccc(F)c3OC[C@@]2(O)C1)C(F)(F)F
4,3000,O=C1CC[C@@]2(S(=O)(=O)c3ccc(Cl)cc3)c3c(F)ccc(F)c3OC[C@]2(O)C1
5,363,O=S(=O)(c1ccc(Cl)cc1)[C@@]12CC[C@H](O)C[C@]1(O)COc1c(F)ccc(F)c12
6,28,O=S(=O)(c1ccc(Cl)cc1)[C@@]12CC[C@@H](O)C[C@]1(O)COc1c(F)ccc(F)c12
7,87,CCS(=O)(=O)CCO[C@@]12COc3c(F)ccc(F)c3[C@]1(S(=O)(=O)c1ccc(Cl)cc1)CC[C@@H](O)C2
8,52,CC(C)S(=O)(=O)CCO[C@@]12COc3c(F)ccc(F)c3[C@]1(S(=O)(=O)c1ccc(Cl)cc1)CC[C@@H](O)C2
9,68,O=S(=O)(N[C@@H]1CC[C@@]2(S(=O)(=O)c3ccc(Cl)cc3)c3c(F)ccc(F)c3OC[C@@]2(O)C1)C(F)F
10,164,O=S(=O)(CF)N[C@@H]1CC[C@@]2(S(=O)(=O)c3ccc(Cl)cc3)c3c(F)ccc(F)c3OC[C@@]2(O)C1
11,29,O=S(=O)(N[C@@H]1CC[C@@]2(S(=O)(=O)c3ccc(Cl)cc3)c3c(F)ccc(F)c3OC[C@@]2(O)C1)C1CC1
12,212,O=S(=O)(N[C@@H]1CC[C@@]2(S(=O)(=O)c3ccc(Cl)cc3)c3c(F)ccc(F)c3OC[C@@]2(O)C1)C1CCC1
13,23,O=S(=O)(N[C@@H]1CC[C@@]2(S(=O)(=O)c3ccc(C(F)(F)F)cc3)c3c(F)ccc(F)c3OC[C@@]2(O)C1)C(F)(F)F
14,173,O=S(=O)(N[C@@H]1CC[C@@]2(S(=O)(=O)c3ccc(C(F)(F)F)cc3)c3c(F)ccc(F)c3OC[C@@]2(O)C1)C1CC1

# Test: Dissociation constant, pKa of the compound in DMSO
# Type: physicochemical
# Settings: not given
row,Compound,pKa
1,CS(N)(=O)=O [METHANESULFONAMIDE],17.5

# Same assay, conditions: DMSO; read-out: pKa
row,Compound,pKa
1,NS(=O)(=O)C(F)(F)F [TRIFLUOROMETHANESULFONAMIDE],9.7
